Test results from patent US20170129903A1, “COMPOUNDS COMPRISING 1,1a,2,5a-TETRAHYDROSPIRO[INDOLE-3,2a-PYRROLE]-2,5a-DIONE SYSTEM AS INHIBITORS P53-MDM2 PROTEIN-PROTEIN INTERACTION” (ADAMED SP. Z O.O., priority 2014, published 2017).

Legend:
[1] = target: T1, p53-Mdm2 interaction (N-terminal domain of Mdm2 protein, amino acids 1-111) (Homo sapiens, UniProt Q00987); assay: Fluorescence polarization (FP) binding assay of p53-Mdm2 interaction; conditions: for Ki: FP assay, 130 nM Mdm2, FAM-labelled p53 peptide, Ki transformed from IC50 using Kenakin equation
T1 construct: N-terminal domain of Mdm2 protein (amino acids 1-111)
T1 sequence (Q00987 1-111): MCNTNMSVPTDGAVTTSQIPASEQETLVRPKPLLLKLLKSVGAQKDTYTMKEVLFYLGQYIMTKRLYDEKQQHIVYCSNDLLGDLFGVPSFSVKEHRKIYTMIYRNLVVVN
Procedure: The inhibition of p53-Mdm2 interaction was measured using a fluorescence polarization (FP) binding assay. FP measures the rotational movement of molecules in a homogenous suspension. For this assay, N-terminal domain of Mdm2 protein (amino acids 1-111) is combined with a fluorescein-labelled (FAM) peptide derived from p53 trans-activation domain. Upon excitation of the fluorescent ligand with linearly polarized light, […]. If the peptide is bound by Mdm2, rotation will slow down and the perpendicular component will decrease. Disruption of the formation of the peptide-Mdm2 complex due to an inhibitor molecule binding to the p53 binding site of Mdm2 results in faster rotation of the peptide.
Fluorescence polarization experiments were read on Tecan Infinite M1000 reader with the 470 nm excitation and 520 nm emission filters for fluorescein. The fluorescence polarization was measured in black 96-well plates (Corning, CLS3991) in room temperature. Purity of Mdm2 was controlled at >95%. Reaction buffer was optimized by adding 5 mM DTT and 0.1% zwitterionic detergent CHAPS to reduce effect of nonspecific interactions.
The test was performed by combining successive dilution of compounds diluted in dimethyl sulfoxide (DMSO, 5% final concentration) with 130 nM Mdm2 in reaction buffer (PBS, 0.1% CHAPS, 5 mM DTT (dithiothreitol)). After 15 minutes of incubation in room temperature […] FAM-labelled peptide was added. Final reading was performed after 90 minutes of incubation. Dose-dependent binding curves and IC50 values were calculated using GraphPad Prism5 and next transformed to Ki values using Kenakin equation.

[2] = tested on: SJSA-1 osteosarcoma cell line; assay: MTT cell viability assay; type: cell-based; conditions: Homo sapiens, SJSA-1, 72 h, 72 h incubation, average of 2-5 experiments
Procedure: The effect of the invented p53-Mdm2 inhibitors on cell viability has been assessed using MTT assay. It is a colorimetric assay that measures conversion of tetrazolium ring of the soluble yellow dye (MTT) into insoluble purple formazan. This process is catalysed solely in mitochondrial dehydrogenases of living cells.
Cells were seeded on 96-well plates and then treated with successive dilutions of tested compounds. After 72 h incubation, MTT was added to the final concentration 0.5 mg/ml. The cells were further incubated for the next 4 h. Then the solution was drained and the remaining formazan crystals were dissolved in 100 μl DMSO. […] All the MTT experiments were independently repeated 2-5 times. Dose-dependent binding curves and IC50 values were calculated using GraphPad Prism 5.

SMILES | Ki [1] | IC50 [2] | times more potent than the corresponding S/R (racemic) mixture ([1]; enantiopure S isomers vs racemic Compounds 71, 93 and 72, respectively)
Cc1ccc(Cl)cc1N1C(=O)c2nn(-c3ccccc3C)c(C(C)C)c2C12C(=O)Nc1cc(Cl)ccc12 (centres unmarked) [Compound 68, 6-chloro-5′-(5-chloro-2-methylphenyl)-2′-(2-methylphenyl)-3′-(propan-2-yl)-1,2,5′,6′-tetrahydro-2′H-spiro[indole-3,4′-pyrrolo[3,4-c]pyrazole]-2,6′-dione] | 46 nM | 6.35 µM | –
COc1ccccc1-n1nc2c(c1C(C)C)C1(C(=O)Nc3cc(Cl)ccc31)N(c1cccc(Cl)c1)C2=O (centres unmarked) [Compound 27, 6-chloro-5′-(3-chlorophenyl)-2′-(2-methoxyphenyl)-3′-(propan-2-yl)-1,2,5′,6′-tetrahydro-2′H-spiro[indole-3,4′-pyrrolo [3,4-c]pyrazole]-2,6′-dione] | 4.3 nM | 1.07 µM | –
Cc1ccc(Cl)cc1N1C(=O)c2n[nH]c(C3(C)CC3)c2C12C(=O)Nc1cc(Cl)ccc12 (centres unmarked) [Compound 18, 6-chloro-5′-(5-chloro-2-methylphenyl)-3′-(1-methylcyclopropyl)-1,2,5′,6′-tetrahydro-2′H-spiro[indole-3,4′-pyrrolo [3,4-c]pyrazole]-2,6′-dione] | 45 nM | 10.8 µM | –
CCOC(=O)CNC1=C(c2ccccc2)C2(C(=O)Nc3cc(Cl)ccc32)N(c2cccc(Cl)c2)C1=O (centres unmarked) [Compound 48, ethyl 2-{[6-chloro-1′-(3-chlorophenyl)-2,5′-dioxo-3′-phenyl-1,1′,2,5′-tetrahydrospiro[indole-3,2′-pyrrole]-4′-yl]amino}acetate] | 205 nM | 28 µM | –
NC(=O)CSC1=C(c2ccccc2)C2(C(=O)Nc3cc(Cl)ccc32)N(c2cccc(Cl)c2)C1=O (centres unmarked) [Compound 53, 2-[6-chloro-1′-(3-chlorophenyl)-2,5′-dioxo-3′-phenyl-1,1′,2,5′-tetrahydrospiro [indole-3,2′-pyrrole]-4′-ylsulfanyl] acetamide] | 581 nM | 29.6 µM | –
COc1ccccc1-n1nc2c(c1C(C)C)[C@@]1(C(=O)Nc3cc(Cl)ccc31)N(c1cc(Cl)cnc1C)C2=O [Compound 80, (3S)-6-chloro-5′-(5-chloro-2-methyl-pyridin-3-yl)-2′-(2-methoxyphenyl)-3′-(propan-2-yl)-1,2,5′,6′-tetrahydro-2′H-spiro [indole-3,4′-pyrrolo[3,4-c]pyrazole]-2,6′-dione] | 1.9 nM | 0.28 µM | about 2 times
COc1ccccc1-n1cc2c(c1C(C)C)C1(C(=O)Nc3cc(Cl)ccc31)N(c1cc(Cl)ccc1NS(C)(=O)=O)C2=O (centres unmarked) [Compound 92, N-{4-chloro-2-[6-chloro-5′-(2-methoxy-phenyl)-2,3′-dioxo-6′-(propan-2-yl)-1,2,3′,5′-tetrahydro-2′H-spiro[indole-3,1′-pyrrolo[3,4-c]pyrrole]-2′-yl]phenyl} methanesulfonamide] | 6.6 nM | 1.07 µM | –
CC(C)c1c2c(nn1CC1CCCN1C(=O)N(C)C)C(=O)N(c1cccc(Cl)c1)C21C(=O)Nc2cc(Cl)ccc21 (centres unmarked) [Compound 34, 2-[6-chloro-5′-(3-chlorophenyl)-2,6′-dioxo-3′-(propan-2-yl)-1,2,5′,6′-tetrahydro-2′H-spiro[indole-3,4′-pyrrolo [3,4-c]pyrazole]-2′-ylmethyl]-N,N-dimethylpyrrolidine-1-carboxamide] | 235 nM | 24.2 µM | –
COc1sccc1-n1cc2c(c1C(C)C)C1(C(=O)Nc3cc(Cl)ccc31)N(c1cc(Cl)ccc1C)C2=O (centres unmarked) [Compound 113, 6-chloro-2′-(5-chloro-2-methylphenyl)-5′-(2-methoxythiophen-3-yl)-6′-(propan-2-yl)-1,2,3′,5′-tetrahydro-2′H-spiro[indole-3,1′-pyrrolo[3,4-c]pyrrole]-2,3′-dione] | 3.4 nM | 0.69 µM | –
COc1ccc(Cl)cc1N1C(=O)c2n[nH]c(C(C)C)c2C12C(=O)Nc1cc(Cl)ccc12 (centres unmarked) [Compound 25, 6-chloro-5′-(5-chloro-2-methoxyphenyl)-3′-(propan-2-yl)-1,2,5′,6′-tetrahydro-2′H-spiro[indole-3,4′-pyrrolo[3,4-c]pyrazole]-2,6′-dione] | 94 nM | 10.2 µM | –
COC(=O)c1ccc(OC)c(-n2nc3c(c2C(C)C)C2(C(=O)Nc4cc(Cl)ccc42)N(c2cc(Cl)ccc2O)C3=O)c1 (centres unmarked) [Compound 79, methyl 3-[6-chloro-5′-(5-chloro-2-hydroxyphenyl)-2,6′-dioxo-3′-(propan-2-yl)-1,2,5′,6′-tetrahydro-2′H-spiro[indole-3,4′-pyrrolo[3,4-c]pyrazole]-2′-yl]-4-methoxybenzoate] | 5.7 nM | 1.02 µM | –
CO[C@H]1CNCC[C@H]1n1cc2c(c1C(C)C)[C@@]1(C(=O)Nc3cc(Cl)ccc31)N(c1cc(Cl)ccc1C)C2=O [Compound 103, (3S)-6-chloro-2′-(5-chloro-2-methyl-phenyl)-5′-[(3S,4R)-3-methoxy-piperidin-4-yl]-6′-(propan-2-yl)-1,2,3′,5′-tetrahydro-2′H-spiro[indole-3,1′-pyrrolo [3,4-c]pyrrole]-2,3′-dione] | 4.5 nM | 2.2 µM | –
COc1ccc(Cl)cc1N1C(=O)C(O)=C(C(=O)C(C)C)C12C(=O)Nc1cc(Cl)ccc12 (centres unmarked) [Compound 10, 6-chloro-1′-(5-chloro-2-methoxyphenyl)-4′-hydroxy-3′-(iso-propanoyl)-1,1′,2,5′-tetrahydrospiro[indole-3,2′-pyrrole]-2,5′-dione] | 610 nM | – | –
CC(C)c1[nH]nc2c1C1(C(=O)Nc3cc(Cl)ccc31)N(c1cncc(Cl)c1)C2=O (centres unmarked) [Compound 83, 6-chloro-5′-(5-chloropyridin-3-yl)-3′-(propan-2-yl)-1,2,5′,6′-tetrahydro-2′H-spiro [indole-3,4′-pyrrolo[3,4-c]pyrazole]-2,6′-dione] | 152 nM | – | –
CC(C)OCC(C)(C)C(=O)C1=C(O)C(=O)N(c2cccc(Cl)c2)C12C(=O)Nc1cc(Cl)ccc12 (centres unmarked) [Compound 13, 6-chloro-1′-(3-chlorophenyl)-3′-[2,2-dimethyl-3-(propan-2-yloxy)propanoyl]-4′-hydroxy-1,1′,2,5′-tetrahydrospiro[indole-3,2′-pyrrole]-2,5′-dione] | 196 nM | – | –
CCOC(=O)/C=C/C(=O)Nc1cccc(C(=O)C2=C(O)C(=O)N(c3cccc(Cl)c3)C23C(=O)Nc2cc(Cl)ccc23)c1 (centres unmarked) [Compound 17, ethyl (2E)-3-[(3-{[6-chloro-1′-(3-chloro-phenyl)-4′-hydroxy-2,5′-dioxo-1,1′,2,5′-tetrahydrospiro[indole-3,2′-pyrrole]-3′-yl]carbonyl}phenyl)carbamoyl]prop-2-enoate] | 57 nM | – | –
O=C1C(O)=C(c2ccccc2)C2(C(=O)Nc3ccccc32)N1c1cccc(Cl)c1 (centres unmarked) [Compound 39, 1′-(3-chlorophenyl)-4′-hydroxy-3′-phenyl-1,1′,2,5′-tetrahydrospiro[indole-3,2′-pyrrole]-2,5′-dione] | 750 nM | – | –
O=C1C(O)=C(Sc2ccc(Cl)cc2)C2(C(=O)Nc3cc(Cl)ccc32)N1c1cccc(Cl)c1 (centres unmarked) [Compound 54, 6-chloro-1′-(3-chlorophenyl)-3′-[(4-chlorophenyl)sulfanyl]-4′-hydroxy-1,1′,2,5′-tetrahydrospiro[indole-3,2′-pyrrole]-2,5′-dione] | 123 nM | – | –
O=C1C(O)=C(c2cccc(Cl)c2)C2(C(=O)Nc3cc(Cl)ccc32)N1c1ccccc1 (centres unmarked) [Compound 37, 6-chloro-3′-(3-chlorophenyl)-4′-hydroxy-1′-phenyl-1,1′,2,5′-tetrahydrospiro[indole-3,2′-pyrrole]-2,5′-dione] | 190 nM | – | –
